Experimental data reported in publication PMC11676982, “Heterotropic Activation of Cytochrome P450 3A4 by Perillyl Alcohol” (Pharmaceutics, 2024).

Key:
CYP2A6 [1] = biological target: T1, CYP2A6 (Homo sapiens, UniProt P11509); experiment: Determination of CYP inhibition mode and Ki in pooled HLMs, CYP2A6-mediated coumarin 7-hydroxylation
T1 sequence (P11509 1-494): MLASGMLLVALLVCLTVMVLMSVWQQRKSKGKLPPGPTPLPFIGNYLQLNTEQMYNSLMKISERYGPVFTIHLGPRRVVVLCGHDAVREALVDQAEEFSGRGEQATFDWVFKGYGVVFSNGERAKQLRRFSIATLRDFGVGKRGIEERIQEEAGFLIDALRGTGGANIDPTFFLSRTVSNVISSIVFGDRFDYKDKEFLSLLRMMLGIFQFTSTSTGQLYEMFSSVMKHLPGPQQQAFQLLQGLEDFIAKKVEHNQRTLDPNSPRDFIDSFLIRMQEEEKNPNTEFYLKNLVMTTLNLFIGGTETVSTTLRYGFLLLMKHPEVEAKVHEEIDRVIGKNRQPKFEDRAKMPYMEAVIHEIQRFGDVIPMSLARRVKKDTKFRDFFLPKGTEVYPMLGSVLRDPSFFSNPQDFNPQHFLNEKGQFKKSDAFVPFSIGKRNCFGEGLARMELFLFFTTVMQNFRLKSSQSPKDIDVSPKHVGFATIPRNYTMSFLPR
Description: (§2) A 5 min pre-incubation was performed prior to initiating reactions with the addition of 1 mM NADPH. After incubation at 37 °C for 10 min, 200 μL of ice-cold acetonitrile containing 100 nM carbamazepine as an internal standard was added to terminate the reaction. The samples were agitated and centrifuged at 4 °C for 20 min at 3000× g. The supernatants were transferred to a 96-well plate for LC-MS/MS analysis. The experiment was performed using three separate samples.
(§3) Data acquired from the evaluation of enzyme inhibition using various concentrations of substrates and test compounds were fit to different models (competitive, noncompetitive, uncompetitive, or mixed), and inhibition constant (Ki) and goodness of fit values were obtained using GraphPad Prism. The appropriate type of inhibition was selected based on statistical goodness of fit tests including Akaike’s information criterion (AICc) with correction for small sample size and the standard deviation of the residuals (Sy.x).

CYP3A4 and CYP2C9 = experiment: Effect of POH on fimasartan (FMS) metabolism in pooled HLMs: FMS S-oxide formation; assay type: in vitro ADME, human; details: FMS 30 μM, (−)-POH 3.2–100 μM
Description: (§1) The substrates were applied at a concentration that approximated their Km values. The reactions were preincubated for 5 min before being initiated with the addition of 1 mM NADPH. After 10 min incubation, reactions containing atorvastatin, buspirone, FMS, or nifedipine were terminated by the addition of 200 μL of ice-cold acetonitrile with 100 nM carbamazepine as an internal standard. For terminating reactions with donepezil or tadalafil, 200 μL of ice-cold methanol containing 0.5% (v/v) formic acid and 1 μM carbamazepine as internal standard was added to samples. […] The experiment was performed using three separate samples.

CYP2B6 [2] = biological target: T2, CYP2B6 (Homo sapiens, UniProt P20813); experiment: Determination of CYP inhibition mode and Ki in pooled HLMs, CYP2B6-mediated bupropion hydroxylation
T2 sequence (P20813 1-491): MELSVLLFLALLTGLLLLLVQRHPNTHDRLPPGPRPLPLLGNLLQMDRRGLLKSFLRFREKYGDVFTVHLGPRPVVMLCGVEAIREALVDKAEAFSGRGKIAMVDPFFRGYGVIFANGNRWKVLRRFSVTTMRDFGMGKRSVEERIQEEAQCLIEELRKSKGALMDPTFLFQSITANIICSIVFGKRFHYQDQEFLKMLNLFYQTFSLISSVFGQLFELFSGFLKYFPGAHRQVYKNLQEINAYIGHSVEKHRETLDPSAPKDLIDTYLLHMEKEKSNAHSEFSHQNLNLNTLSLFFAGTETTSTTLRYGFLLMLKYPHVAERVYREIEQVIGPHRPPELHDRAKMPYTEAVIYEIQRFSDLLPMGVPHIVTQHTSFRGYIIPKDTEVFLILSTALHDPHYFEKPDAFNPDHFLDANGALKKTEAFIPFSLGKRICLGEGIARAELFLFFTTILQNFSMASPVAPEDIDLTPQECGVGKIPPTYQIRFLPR
Description: as §2, §3

CYP2E1 = CYP2E1 (Homo sapiens, UniProt P05181); experiment: Direct CYP inhibition assay in pooled HLMs, CYP2E1 (chlorzoxazone); assay type: in vitro ADME; details: pooled HLMs 0.2 mg/mL; substrate chlorzoxazone 50 μM; 10 min; read-out: IC50 against CYP2E1
Chain of CYP2E1 (P05181 whole entry): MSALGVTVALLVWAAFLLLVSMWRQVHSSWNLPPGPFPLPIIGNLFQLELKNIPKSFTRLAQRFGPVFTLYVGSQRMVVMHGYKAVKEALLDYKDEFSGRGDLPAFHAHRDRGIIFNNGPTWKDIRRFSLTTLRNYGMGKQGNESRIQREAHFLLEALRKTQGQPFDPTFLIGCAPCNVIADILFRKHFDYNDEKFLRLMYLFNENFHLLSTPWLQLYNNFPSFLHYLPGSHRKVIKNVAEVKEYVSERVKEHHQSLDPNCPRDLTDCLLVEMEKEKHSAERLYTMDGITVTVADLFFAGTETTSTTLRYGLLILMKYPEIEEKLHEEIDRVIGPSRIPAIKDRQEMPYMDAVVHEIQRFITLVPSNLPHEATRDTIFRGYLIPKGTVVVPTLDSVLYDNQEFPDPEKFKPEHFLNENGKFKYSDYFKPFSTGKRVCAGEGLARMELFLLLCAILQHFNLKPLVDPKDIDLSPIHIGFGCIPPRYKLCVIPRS

CYP1A2 = biological target: T3, CYP1A2 (Homo sapiens, UniProt P05177); experiment: Direct CYP inhibition assay in pooled HLMs, CYP1A2 (phenacetin); details: up to 50 μM
T3 sequence (P05177 1-516): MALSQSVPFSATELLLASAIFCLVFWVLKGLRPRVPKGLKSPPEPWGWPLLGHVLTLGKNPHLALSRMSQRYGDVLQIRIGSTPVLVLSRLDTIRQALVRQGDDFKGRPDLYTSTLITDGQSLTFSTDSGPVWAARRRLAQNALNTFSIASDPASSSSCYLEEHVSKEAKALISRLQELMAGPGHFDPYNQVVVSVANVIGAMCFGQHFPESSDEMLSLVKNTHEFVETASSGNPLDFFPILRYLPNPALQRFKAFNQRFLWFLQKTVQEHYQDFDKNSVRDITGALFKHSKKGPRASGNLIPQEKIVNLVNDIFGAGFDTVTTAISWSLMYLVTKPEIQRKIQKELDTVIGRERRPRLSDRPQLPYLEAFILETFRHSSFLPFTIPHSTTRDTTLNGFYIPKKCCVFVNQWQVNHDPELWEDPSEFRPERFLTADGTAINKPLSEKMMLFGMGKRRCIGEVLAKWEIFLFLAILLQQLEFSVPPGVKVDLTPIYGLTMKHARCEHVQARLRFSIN

CYP3A4 [3] = biological target: T4, CYP3A4 (Homo sapiens, UniProt P08684); experiment: Effect of POH on fimasartan (FMS) metabolism in pooled HLMs: CYP3A4-mediated BR-A-557 formation; assay type: in vitro ADME; details: FMS 30 μM, 100 μM (−)-POH
T4 sequence (P08684 whole entry): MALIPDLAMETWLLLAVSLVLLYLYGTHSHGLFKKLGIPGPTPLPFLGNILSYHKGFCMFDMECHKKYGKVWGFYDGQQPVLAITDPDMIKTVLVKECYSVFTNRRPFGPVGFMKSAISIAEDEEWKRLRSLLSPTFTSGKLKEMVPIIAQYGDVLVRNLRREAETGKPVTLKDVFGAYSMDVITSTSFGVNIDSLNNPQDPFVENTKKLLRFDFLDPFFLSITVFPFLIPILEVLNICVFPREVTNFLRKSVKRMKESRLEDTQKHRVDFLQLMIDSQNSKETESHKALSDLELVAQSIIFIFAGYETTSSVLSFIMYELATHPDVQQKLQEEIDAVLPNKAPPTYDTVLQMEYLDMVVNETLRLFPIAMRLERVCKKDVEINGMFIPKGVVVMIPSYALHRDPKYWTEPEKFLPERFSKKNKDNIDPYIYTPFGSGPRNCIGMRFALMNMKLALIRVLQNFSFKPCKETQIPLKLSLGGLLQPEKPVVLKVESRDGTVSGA
Description: as §1

CYP2B6 [4] = biological target: T2, CYP2B6; experiment: biochemical
Description: as §2, §3

rCYP3A4 = biological target: T5, rCYP3A4 (Homo sapiens, UniProt P08684); experiment: Enzyme activity assay using rCYP3A4 with or without cytochrome b5 (MDZ 1′-hydroxylation); assay type: biochemical
T5 construct: host or cells: baculovirus-transfected insect cells
T5 sequence (P08684 whole entry): as above
Description: Incubation mixtures (final volume, 200 μL) contained 0.1 M PPB (pH 7.4), 50 pmol/mL rCYP3A4 with or without cytochrome b5, 1 mM NADPH, 5 μM MDZ, and POH (0–100 μM). After preincubating for 5 min, the reactions were initiated by adding 1 mM NADPH and incubated for 10 min. […] The experiment was performed using three separate samples.

CYP3A4 [5] = biological target: T4, CYP3A4
CYP2A6 [6] = biological target: T1, CYP2A6; experiment: Direct CYP inhibition assay in pooled HLMs, CYP2A6 (coumarin); assay type: in vitro ADME; details: pooled HLMs 0.2 mg/mL; substrate coumarin 5 μM; 10 min; 95% CI in parentheses; read-out: IC50 against CYP2A6
CYP2C9 = CYP2C9 (Homo sapiens, UniProt P11712); experiment: Effect of POH on fimasartan (FMS) metabolism in pooled HLMs: CYP2C9-mediated hydroxy butyl FMS formation; assay type: in vitro ADME; details: FMS 30 μM, 95% CI in parentheses; for IC50: pooled HLMs, 10 min
Chain of CYP2C9 (P11712 whole entry): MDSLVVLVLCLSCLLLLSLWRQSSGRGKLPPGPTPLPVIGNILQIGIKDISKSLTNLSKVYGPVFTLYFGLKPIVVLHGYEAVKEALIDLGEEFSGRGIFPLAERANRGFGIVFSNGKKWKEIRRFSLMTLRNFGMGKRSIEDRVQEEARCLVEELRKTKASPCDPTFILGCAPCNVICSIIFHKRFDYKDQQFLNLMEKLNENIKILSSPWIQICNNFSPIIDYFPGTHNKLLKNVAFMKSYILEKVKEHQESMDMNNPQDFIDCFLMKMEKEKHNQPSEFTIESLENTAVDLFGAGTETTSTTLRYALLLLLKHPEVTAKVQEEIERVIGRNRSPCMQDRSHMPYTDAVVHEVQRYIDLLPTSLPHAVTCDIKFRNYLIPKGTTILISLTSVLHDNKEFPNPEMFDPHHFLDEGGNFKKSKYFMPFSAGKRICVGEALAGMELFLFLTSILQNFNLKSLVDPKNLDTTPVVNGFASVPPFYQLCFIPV
Description: as §1

[7] = best fit by AICc and Sy.x, Dixon plots

Compound: C=C(C)[C@@H]1CC=C(CO)CC1 [(−)-POH, (−)-perillyl alcohol]
- Type of inhibition, CYP2A6 (CYP2A6 [1]; [7]): mixed inhibition model
- Ki, CYP2A6, uncompetitive model (not selected) (CYP2A6 [1]; pooled HLMs, coumarin, 95% CI in parentheses): 10.9 (9.16–12.9) μM
- Formation of FMS S-oxide (CYP3A4 and CYP2C9): reduced
- Type of inhibition, CYP2B6 (CYP2B6 [2]; [7]): mixed inhibition model
- Ki, CYP2B6, uncompetitive model (not selected) (CYP2B6 [2]; pooled HLMs, bupropion, 95% CI in parentheses): 4.54 (3.62–5.56) μM
- IC50 (CYP2E1): > 50 µM
- Inhibition of CYP1A2 activity (CYP1A2): not significantly inhibited
- BR-A-557 formation from FMS relative to the control (CYP3A4 [3]): 1.29 fold
- Ki (CYP2B6 [4]): 3.78 µM
- Enhancement of MDZ 1′-hydroxylation (rCYP3A4; rCYP3A4 in the absence of cytochrome b5, POH 0–100 μM): No significant enhancement
- CYP3A4 activity for 1′-OH-MDZ formation compared with control without (−)-POH (rCYP3A4; rCYP3A4 in the presence of cytochrome b5, 100 μM (−)-POH, 5 μM MDZ): 1.57 fold
- Formation of 1′-OH-MDZ relative to control without (−)-POH (CYP3A4 [5]; human, 10 min, 50 μM, pH 7.4): 1.83 fold
- Effect on CYP3A4 (midazolam) activity, MDZ 1′-hydroxylation (CYP3A4 [5]; pooled HLMs, substrate midazolam, test compound 0–50 μM): Stimulation *
- IC50 (CYP2A6 [6]): 15.7 µM
- IC50 (CYP2C9; IC50 against formation of 1-hydroxy butyl FMS): 123 µM
- IC50 (CYP2C9; IC50 against formation of 4-hydroxy butyl FMS): 63 µM
- IC50 at 10 min (CYP2C9; human, pooled human liver microsomes, pH 7.4, pooled HLMs, read-out: IC50 against formation of 2- or 3-hydroxy butyl FMS): 62 µM
